The values that follow come from patent US8022086B2, “Therapeutic agent for glomerular disease” (Kowa Co., Ltd., priority 2004, dated 2011).

For this test, the system named is rat model of glomerular basement membrane (GBM) nephritis. The test is described as follows: Pharmacological test employing rat model of glomerular basement membrane (GBM) nephritis: urinary total protein excretion. Conditions: anti-GBM antibody-induced nephritis rats, repeated oral administration for two weeks; for 18-hour urinary total protein excretion: pitavastatin calcium 30 mg/kg, candesartan cilexetil 3 mg/kg, control group 316, N=7; for 18-hour urinary total protein excretion compared with control group (significance): versus no drug administration group. The test is classed as in vivo, Wistar male rats. The procedure: Wistar male rats (six weeks old, purchased from Japan Laboratory Animals, Inc.) were quarantined and acclimatized for four days, and employed for the test. Firstly, a rat GBM rabbit IgG antibody was prepared, and then an antibody solution was adjusted with saline upon use to be 31 mg IgG antibody/mL saline. Thereafter, each of the rats was fixated under unanesthetized conditions, and the antibody solution was intravenously administered (1 mL/kg) through the tail vein, whereby progressive renal disorder was induced. The resultant rats were divided into four groups (N=7 for each), and immediately thereafter, the below-described test was carried out. […] In the drug administration groups, the respective drugs were repeatedly orally administered for two weeks. In each of the groups, after completion of two-week drug administration, urine was collected from each rat for 18 hours in a metabolic cage (Product of […] Co., Ltd.), and urinary total protein excretion was measured.

As to `CCOc1nc2cccc(C(=O)OC(C)OC(=O)OC3CCCCC3)c2n1Cc1ccc(-c2ccccc2-c2nnn[nH]2)cc1` (stereo not shown) [candesartan cilexetil, 1-(cyclohexyloxycarbonyloxy)ethyl 2-ethoxy-1-[[2′-(1H-tetrazol-5-yl)biphenyl-4-yl]methyl]-1H-benzimidazole-7-carboxylate], the “18-hour urinary total protein excretion” value was 92 mg/18 h/kg and the “18-hour urinary total protein excretion compared with control group (significance)” value is reported as “lower, but not significantly lower”.
`O=C(O)C[C@H](O)C[C@H](O)/C=C/c1c(C2CC2)nc2ccccc2c1-c1ccc(F)cc1` [pitavastatin calcium, (3R, 5S, 6B)-7-[2-cyclopropyl-4-(4-fluorophenyl)-3-quinolyl]-3,5-dihydroxy-6-heptenoic acid]: the “18-hour urinary total protein excretion” value stood at 138 mg/18 h/kg and the “18-hour urinary total protein excretion compared with control group (significance)” value was “lower, but not significantly lower”.
